# System: G. duodenalis BRIS/91/HEPU/1279
# Experiment: Primary Giardia screen at 10 µM (live-cell imaging, automated counting)
# Type: cell-based, Giardia duodenalis
# Conditions: 24 h
# Procedure, shortened: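 Singlicate, 10 μM final, 0.2% DMSO; sealed chambers, 3% O2/5% CO2/N2. Counts by live-cell imaging at 24 h and 48 h. % growth vs vehicle, media background subtracted; Z' per plate.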
row,SMILES,Average % Inhibition 24h
1,Cc1ccnc(N2CCCC(C(=O)N3CC=C(c4ccccc4)CC3)C2)n1 (stereo not drawn) [SN00795039],18.0%
2,CCCNS(=O)(=O)c1cc(-c2nc(-c3cccc(Cl)c3)cs2)n(C)c1C [SN00795169],21.9%
3,Cc1csc(-c2cc(S(=O)(=O)N3c4ccccc4CC3C)c(C)n2C)n1 (stereo not drawn) [SN00795179],22.6%
4,COc1ccc2oc(-c3noc(C(=O)NCCN4CCCCCC4)n3)c(C)c2c1 [SN00795214],11.6%

# Same assay, conditions: 24 h, first singlicate assay
row,SMILES,% Inhibition n=1 24h
1,Cc1ccnc(N2CCCC(C(=O)N3CC=C(c4ccccc4)CC3)C2)n1 (stereo not drawn) [SN00795039],29.9%
2,CCCNS(=O)(=O)c1cc(-c2nc(-c3cccc(Cl)c3)cs2)n(C)c1C [SN00795169],31.8%
3,Cc1csc(-c2cc(S(=O)(=O)N3c4ccccc4CC3C)c(C)n2C)n1 (stereo not drawn) [SN00795179],34.1%
4,COc1ccc2oc(-c3noc(C(=O)NCCN4CCCCCC4)n3)c(C)c2c1 [SN00795214],16.8%

# Same assay, conditions: 24 h, re-assessment
row,SMILES,% Inhibition n=2 24h
1,Cc1ccnc(N2CCCC(C(=O)N3CC=C(c4ccccc4)CC3)C2)n1 (stereo not drawn) [SN00795039],6.1%
2,CCCNS(=O)(=O)c1cc(-c2nc(-c3cccc(Cl)c3)cs2)n(C)c1C [SN00795169],12.0%
3,Cc1csc(-c2cc(S(=O)(=O)N3c4ccccc4CC3C)c(C)n2C)n1 (stereo not drawn) [SN00795179],11.1%
4,COc1ccc2oc(-c3noc(C(=O)NCCN4CCCCCC4)n3)c(C)c2c1 [SN00795214],6.3%

# Same assay, conditions: 48 h
row,SMILES,Average % Inhibition 48h
1,Cc1ccnc(N2CCCC(C(=O)N3CC=C(c4ccccc4)CC3)C2)n1 (stereo not drawn) [SN00795039],46.1%
2,CCCNS(=O)(=O)c1cc(-c2nc(-c3cccc(Cl)c3)cs2)n(C)c1C [SN00795169],32.8%
3,Cc1csc(-c2cc(S(=O)(=O)N3c4ccccc4CC3C)c(C)n2C)n1 (stereo not drawn) [SN00795179],63.7%
4,COc1ccc2oc(-c3noc(C(=O)NCCN4CCCCCC4)n3)c(C)c2c1 [SN00795214],56.6%

# Same assay, conditions: 48 h, first singlicate assay
row,SMILES,% Inhibition n=1 48h
1,Cc1cc(C2CCCN2Cc2sccc2C)on1 (stereo not drawn) [SN00793909],2.5%
2,CCOC(=O)c1ccc(Nc2c(-c3ccccc3)nc3[nH]cnn23)cc1 [SN00794007],0.0%
3,Cc1nnc2sc(-c3ccc(CNC(=O)c4cccc(Br)c4)cc3)nn12 [SN00794033],41.7%
4,CCc1nnc2sc(-c3ccc(CNC(=O)c4ccc(Br)o4)cc3)nn12 [SN00794046],48.2%
5,Cc1cc(C)c2c(=O)n(CC(=O)Nc3ccc(Br)cc3)c(=O)n(C)c2n1 [SN00794110],0.0%
6,COC(=O)c1cn(CC(=O)NCc2cc3c(cc2C)OCCCO3)c2ccccc12 [SN00794141],14.4%
7,CNC1(c2nnnn2-c2ccc(OC)cc2)CCCCC1 [SN00794158],11.8%
8,COc1ccc(-n2nnnc2C2(N3CCOCC3)CCCCC2)cc1 [SN00794159],0.0%
9,O=C(c1ccc(F)cc1)N1CCCN(Cc2noc(-c3ccccc3)n2)CC1 [SN00794182],33.4%
10,CCCn1nnc(NCc2ccc(OCc3ccccc3)cc2)n1 [SN00794214],16.1%
11,CCCNC1=C(C(=O)Nc2ccc(F)cc2)S(=O)(=O)c2ccccc21 [SN00794224],46.5%
12,O=C(c1nc2nc(-c3ccco3)cc(C(F)(F)F)n2n1)N1CCCCCC1 [SN00794256],19.8%
13,O=C(Nc1ccc(F)cc1)c1nc2nc(-c3cccs3)cc(C(F)(F)F)n2n1 [SN00794266],18.7%
14,CNc1nc(C(N)=O)c(NC(=O)c2ccc(OC)cc2)s1 [SN00794269],25.8%
15,CSc1ccccc1NC(=O)C1CCN(S(C)(=O)=O)c2ccccc2O1 (stereo not drawn) [SN00794287],8.2%
16,COc1ccccc1NC(=O)c1cn2c3c(cc(Br)cc3c1=O)CC2 [SN00794326],11.4%
17,COC(=O)c1c(NC(=O)Cn2nc(C(F)(F)F)c(Br)c2C)sc2c1CCCC2 [SN00794352],23.2%
18,Cc1cccc(NC(=O)Cn2c(=O)n(-c3ccc(F)cc3)c(=O)c3c(C)c(C(=O)N(C)C)sc32)c1 [SN00794395],21.9%
19,CCCNc1ncnc2c1cnn2-c1ccc(C)cc1 [SN00794411],0.0%
20,Cc1ccc(Cl)cc1-n1ncc2c(NCCO)ncnc21 [SN00794417],8.1%
21,O=C(Nc1ccc(Br)cc1)c1ccc(F)c(S(=O)(=O)NCCc2ccccc2)c1 [SN00794458],3.9%
22,CCN(CC)S(=O)(=O)c1ccc2[nH]cc(C(=O)NCCCN3CCCC3)c(=O)c2c1 [SN00794535],13.0%
23,COc1ccc(CCNC(=O)C2c3ccccc3C(=O)N2Cc2ccc(C)cc2)cc1OC (stereo not drawn) [SN00794542],6.3%
24,CC(=O)Nc1cc(C(=O)NCCCN2CCC(C)CC2)ccc1S(=O)(=O)c1ccc(Cl)cc1 [SN00794609],23.9%
25,Cc1nccc2[nH]c(=O)c(C(=O)NCCCN(C)C3CCCCC3)cc12 [SN00794671],0.0%

row,SMILES,% Inhibition n=1 48h
1,CCOc1ccc(-c2nc(CSCC(=O)N3CCN(c4ccc(Cl)cc4)CC3)c(C)o2)cc1 [SN00794684],0.0%
2,CCN(c1ccccc1)S(=O)(=O)c1ccc2[nH]cc(C(=O)NCCOC)c(=O)c2c1 [SN00794693],10.4%
3,CCOC(=O)c1cc(-c2ccccc2)n(CCC(=O)N2CCn3c2nc2ccccc23)c1C [SN00794728],10.1%
4,Cc1ccc(NS(=O)(=O)c2ccc(-n3cccn3)cc2)cc1 [SN00794732],6.0%
5,O=C(NCc1ccccc1)c1ccc(-c2cc(N3CCOCC3)ncn2)cc1 [SN00794761],12.2%
6,O=C(Nc1cccc(C(=O)N2CCCC2C(=O)NCCc2ccccc2)c1)c1cccs1 (stereo not drawn) [SN00794771],3.7%
7,CCNC(=O)C1CCCN1C(=O)c1cccc(NC(=O)c2ccc(Br)cc2)c1 (stereo not drawn) [SN00794777],0.0%
8,COc1cc(OC)c(NC(=O)N2CCN(c3nc4ccccc4n3C)CC2)cc1Cl [SN00794807],0.0%
9,O=C(c1csc(-c2ccncc2)n1)N1CCN(c2ccccc2)CC1 [SN00794830],15.8%
10,O=S(=O)(Cc1ccc(Cl)cc1)c1nc2ccccc2nc1N1CCC2(CC1)OCCO2 [SN00794883],15.2%
11,Cc1ccc2c(c1)n(Cc1ccc(Cl)cc1)c(=O)c1nc(C(=O)NCCc3cccs3)nn12 [SN00794982],29.9%
12,Cc1ccc(NC(=O)c2nc3c(=O)n(Cc4ccccc4C)c4cc(C)ccc4n3n2)cc1 [SN00794983],3.1%
13,Cc1ccnc(N2CCCC(C(=O)NC3CCCC3)C2)n1 (stereo not drawn) [SN00795015],10.9%
14,Cc1ccnc(N2CCCC(C(=O)N3CC=C(c4ccccc4)CC3)C2)n1 (stereo not drawn) [SN00795039],57.6%
15,Cc1ccc(C2c3cccn3-c3ccccc3CN2C(=O)c2cccnc2)cc1 (stereo not drawn) [SN00795042],0.0%
16,Cc1ccc(-c2cc3nc(C)cc(N4CCC(C(=O)NCCCN5CCCC5)CC4)n3n2)cc1 [SN00795048],16.1%
17,Cc1cc(N2CCC(C(=O)N3CCN(c4ccc(F)cc4)CC3)CC2)n2nc(-c3ccccc3)cc2n1 [SN00795072],0.0%
18,O=S(=O)(c1ccc(-c2cnc(C3CCC3)o2)s1)N1CCC2(CC1)OCCO2 [SN00795093],7.0%
19,O=S(=O)(NCCC1=CCCCC1)c1ccc(-c2cnc(C3CCCC3)o2)s1 [SN00795100],27.9%
20,CCOc1ccc(N/C(=N\S(C)(=O)=O)Nc2cc(C)c(Cl)cc2OC)cc1 [SN00795110],18.1%
21,COc1ccc(CC(=O)N2CCN(Cc3nc4cc(C(=O)N5CCCC5)ccc4n3C)CC2)cc1 [SN00795130],13.8%
22,CCCNS(=O)(=O)c1cc(-c2nc(-c3cccc(Cl)c3)cs2)n(C)c1C [SN00795169],47.2%
23,Cc1csc(-c2cc(S(=O)(=O)N3c4ccccc4CC3C)c(C)n2C)n1 (stereo not drawn) [SN00795179],71.5%
24,Cc1ccc2oc(-c3noc(C(=O)NCC4CCCO4)n3)c(C)c2c1 (stereo not drawn) [SN00795207],0.0%
25,COc1ccc2oc(-c3noc(C(=O)NCCN4CCCCCC4)n3)c(C)c2c1 [SN00795214],52.1%

row,SMILES,% Inhibition n=1 48h
1,Cc1ccc(S(=O)(=O)NC2CCN(C(=O)Cc3ccc(Br)cc3)CC2)cc1 [SN00795227],3.1%
2,O=C(c1ccco1)N1CCC(NS(=O)(=O)c2ccc(Cl)cc2)CC1 [SN00795232],0.0%
3,Cc1cccc(-c2nc(-c3ccc(NS(C)(=O)=O)cc3)no2)c1 [SN00795250],9.2%
4,COc1ccc(-c2c(C(=O)Nc3cccc(Cl)c3)nn3c(C)cc(=O)[nH]c23)cc1 [SN00795279],7.0%
5,Cc1cccc(-c2nc3sc(N4CCN(C(=O)NC(C)C)CC4)nn3c2NC(C)(C)C)c1 [SN00795313],0.0%
6,Cc1ccccc1C(=O)Nc1cnc(N2CCNCC2)c(C(=O)N(C)Cc2ccccc2)c1 [SN00795318],15.2%
7,Cc1cccc(C(=O)Nc2cnc(N3CCNCC3)c(C(=O)N(CC(C)C)CC(C)C)c2)c1 [SN00795320],14.5%
8,COCCNc1c(-c2ccc(O)cc2)nc2sc3cc(C)ccc3n12 [SN00795351],0.0%
9,CCOc1ccc(-c2nc3sc4cc(C)ccc4n3c2NCCOC)cc1 [SN00795352],0.0%
10,Cc1ccc(S(=O)(=O)N2CCN(C)c3ccccc32)cc1 [SN00795395],8.6%
11,Cc1cccc(NC(=O)Nc2cc(F)c3[nH]c(=O)ccc3c2)c1C [SN00795412],0.0%
12,CCOC(=O)CC(NC(=O)Nc1cc(F)c2[nH]c(=O)ccc2c1)c1ccccc1 (stereo not drawn) [SN00795424],4.9%
13,Cc1ccc(C)c(S(=O)(=O)Nc2ccc3nnc(-c4ccccc4)n3n2)c1 [SN00795461],0.0%
14,O=C(NC1CC1)c1cnn2c(-c3ccccn3)ccnc12 [SN00795482],0.0%
15,Cc1nc2c(c(=O)n1CC(=O)Nc1cccc(F)c1)CCN(Cc1ccccc1)C2 [SN00795483],0.0%
16,CCOC(=O)N1CCc2c(nc(-c3ccc(C)cc3)n(CC(=O)Nc3ccc(Cl)cc3)c2=O)C1 [SN00795497],41.5%
17,CNC(=O)Nc1ccc(C2(C(=O)Nc3ccc(F)c(C)c3)CCC2)cc1 [SN00795530],0.0%
18,O=C(CCC(=O)N1CCCN(c2nc3cccnc3s2)CC1)NCCc1c[nH]c2ccccc12 [SN00795593],0.0%
19,CC1CCN(CCCNC(=O)c2ccc(-c3nc(-c4ccccc4)no3)cc2)CC1 [SN00795676],23.6%
20,O=C(c1cccc(-c2nc(-c3ccc(F)cc3)no2)c1)N1CCN(c2ccccc2)CC1 [SN00795713],0.9%
21,CC(C)(C)Nc1c(-c2ccc(F)cc2)nc2sc(N3CCN(Cc4ccccn4)CC3)nn12 [SN00795823],32.2%
22,COc1ccc(C)cc1NC(=O)Nc1c(-c2ccncc2)[nH]c2c(Cl)cccc12 [SN00795853],0.0%
23,CC1(C(=O)NCc2cccc(F)c2)CCCN(C(=O)Cc2cccs2)C1 (stereo not drawn) [SN00795886],29.2%

# Same assay, conditions: 48 h, re-assessment
row,SMILES,% Inhibition n=2 48h
1,Cc1ccnc(N2CCCC(C(=O)N3CC=C(c4ccccc4)CC3)C2)n1 (stereo not drawn) [SN00795039],34.6%
2,CCCNS(=O)(=O)c1cc(-c2nc(-c3cccc(Cl)c3)cs2)n(C)c1C [SN00795169],18.5%
3,Cc1csc(-c2cc(S(=O)(=O)N3c4ccccc4CC3C)c(C)n2C)n1 (stereo not drawn) [SN00795179],55.8%
4,COc1ccc2oc(-c3noc(C(=O)NCCN4CCCCCC4)n3)c(C)c2c1 [SN00795214],61.1%
